This note sets out measurements from patent US20240018145A1, “[…]-DEPENDENT EN[…] TREATING OR […]” (priority 2020, published 2024).

Read-outs that look alike come from different tables or passages of the source.

The subject of this test is FLU A (PR/8/34). The test can be described thus: Flu A Neuraminidase Antiviral Assay. The class given is cell-based.

`CN1C(=O)c2c(O)c(=O)ccn2N2C(c3ccccc3)C3CCC(C3)C12` (single isomer, unassigned) [Compound 9C, 4-hydroxy-6-methyl-11-phenyl-6a,7,8,9,10,11-hexahydro-3H-7,10-methanopyrido[1′,2′:1,6][1,2,4]triazino[2,3-a]azepine-3,5(6H)-dione] showed an EC50 of more than 8100 nM.
Under “MDCK, 48 h”, `CN1C(=O)c2c(O)c(=O)ccn2N2C1/C(=C/c1ccccc1)C[C@@H](O)[C@@]2(C)c1ccccc1` (stereo partly drawn) [Compound 149, (1R,2R)-4-((E)-benzylidene)-2,7-dihydroxy-1,5-dimethyl-1-phenyl-1,2,3,4,4a,5-hexahydrodipyrido[1,2-b:2′,1′-f][1,2,4]triazine-6,8-dione] came in with an EC50 of more than 810 nM.
In the case of `CN1C(=O)c2c(O)c(=O)ccn2N2C(c3ccccc3)C(O)CCC12` (single isomer, unassigned) [Compound 135A, 2,7-dihydroxy-5-methyl-1-phenyl-1,2,3,4,4a,5-hexahydrodipyrido[1,2-b:2′,1′-f][1,2,4]triazine-6,8-dione], for the setting “MDCK, 48 h”, it took 428 nM to reach a half-maximal effect (EC50).
Consider `CCN1C(=O)c2c(O)c(=O)ccn2N2C(c3ccccc3)C(c3ccc(F)c(F)c3)CCC12` (single isomer, unassigned) [Compound 94B, 2-(3,4-difluorophenyl)-5-ethyl-7-hydroxy-1-phenyl-1,2,3,4,4a,5-hexahydrodipyrido[1,2-b:2′,1′-f][1,2,4]triazine-6,8-dione], for which it took 8.6 nM to reach a half-maximal effect (EC50).
Same read-out and setting: as for `CN1C(=O)c2c(O)c(=O)ccn2N2C1CCC2(C)c1ccccc1` (single isomer, unassigned) [Compound 61A, 6-hydroxy-1,4-dimethyl-1-phenyl-2,3,3a,4-tetrahydro-1H-pyrido[2,1-f]pyrrolo[1,2-b][1,2,4]triazine-5,7-dione], the figure is 122 nM; as for `CCN1C(=O)c2c(O)c(=O)ccn2N2C(c3ccccc3)C(C3(C(F)(F)F)CC3)CCC12` (single isomer, unassigned) [Compound 104B, 5-ethyl-7-hydroxy-1-phenyl-2-(1-(trifluoromethyl)cyclopropyl)-1,2,3,4,4a,5-hexahydrodipyrido[1,2-b:2′,1′-f][1,2,4]triazine-6,8-dione], more than 810 nM.
Consider `CN1C(=O)c2c(O)c(=O)ccn2N2C1CCC(C)(CC(F)(F)F)C2c1ccccc1` (single isomer, unassigned) [Compound 71B, 7-hydroxy-2,5-dimethyl-1-phenyl-2-(2,2,2-trifluoroethyl)-1,2,3,4,4a,5-hexahydrodipyrido[1,2-b:2′,1′-f][1,2,4]triazine-6,8-dione], for which it took 18.5 nM to reach a half-maximal effect (EC50).
Same read-out and setting: the value for `CC1(c2ccccc2)CCCC2N(CC3CC3)C(=O)c3c(O)c(=O)ccn3N21` (single isomer, unassigned) [Compound 37B, 5-(cyclopropylmethyl)-7-hydroxy-1-methyl-1-phenyl-1,2,3,4,4a,5-hexahydrodipyrido[1,2-b:2′,1′-f][1,2,4]triazine-6,8-dione] was 1240 nM; that for `CN1C(=O)c2c(O)c(=O)ccn2N2C(c3ccccc3)C(c3cc(F)c(F)cc3F)CCC12` (single isomer, unassigned) [Compound 86A, 7-hydroxy-5-methyl-1-phenyl-2-(2,4,5-trifluorophenyl)-1,2,3,4,4a,5-hexahydrodipyrido[1,2-b:2′,1′-f][1,2,4]triazine-6,8-dione] was 4.3 nM; that for `CCN1C(=O)c2c(O)c(=O)ccn2N2C(c3ccccc3Br)C(CC(F)(F)F)CCC12` (single isomer, unassigned) [Compound 106B, 1-(2-bromophenyl)-5-ethyl-7-hydroxy-2-(2,2,2-trifluoroethyl)-1,2,3,4,4a,5-hexahydrodipyrido[1,2-b:2′,1′-f][1,2,4]triazine-6,8-dione] was 87.8 nM.
Still for that read-out and setting: as for `CN1C(=O)c2c(O)c(=O)ccn2N2C1CCC1(CCC(F)(F)CC1)C2c1ccccc1` (single isomer, unassigned) [Compound 72A, 4,4-difluoro-7′-hydroxy-5′-methyl-1′-phenyl-3′,4′,4a′,5′-tetrahydro-1′H-spiro[cyclohexane-1,2′-dipyrido[1,2-b:2′,1′-f][1,2,4]triazine]-6′,8′-dione], the figure is more than 810 nM.
`CCN1C(=O)c2c(O)c(=O)cc(COC)n2N2C(c3ccccc3)C(CC(F)(F)F)CCC12` (single isomer, unassigned) [Compound 131A, 5-ethyl-7-hydroxy-10-(methoxymethyl)-1-phenyl-2-(2,2,2-trifluoroethyl)-1,2,3,4,4a,5-hexahydrodipyrido[1,2-b:2′,1′-f][1,2,4]triazine-6,8-dione] displayed an EC50 (MDCK, 48 h) of more than 810 nM.
Compound `CN1C(=O)c2c(O)c(=O)ccn2N2C1CCCC2(C)c1c(F)cccc1F` (single isomer, unassigned) [Compound 23B, 1-(2,6-difluorophenyl)-7-hydroxy-1,5-dimethyl-1,2,3,4,4a,5-hexahydrodipyrido[1,2-b:2′,1′-f][1,2,4]triazine-6,8-dione] gave a concentration for a half-maximal effect (EC50) of 2.6 nM.
Still for that read-out and setting: the value for `CCN1C(=O)c2c(O)c(=O)cc(COC)n2N2C(c3ccccc3)C(CC(F)(F)F)CCC12` (stereo not shown) [Compound 131E, 5-ethyl-7-hydroxy-10-(methoxymethyl)-1-phenyl-2-(2,2,2-trifluoroethyl)-1,2,3,4,4a,5-hexahydrodipyrido[1,2-b:2′,1′-f][1,2,4]triazine-6,8-dione] was 6.8 nM.
The same measure, in the same setting: as for `CN1C(=O)c2c(O)c(=O)ccn2N2C(c3ccc(F)cc3)C(CC(F)(F)F)CCC12` (single isomer, unassigned) [Compound 122B, 1-(4-fluorophenyl)-7-hydroxy-5-methyl-2-(2,2,2-trifluoroethyl)-1,2,3,4,4a,5-hexahydrodipyrido[1,2-b:2′,1′-f][1,2,4]triazine-6,8-dione], the figure is 5.2 nM.
Consider `COCCC1CCC2N(C)C(=O)c3c(O)c(=O)ccn3N2C1c1ccccc1Cl` (stereo not shown) [Compound 67, 1-(2-chlorophenyl)-7-hydroxy-2-(2-methoxyethyl)-5-methyl-1,2,3,4,4a,5-hexahydrodipyrido[1,2-b:2′,1′-f][1,2,4]triazine-6,8-dione], for which the EC50 (MDCK, 48 h) stood at 16.4 nM.
The compound `CCCC1CCC2N(C)C(=O)c3c(O)c(=O)ccn3N2C1(C)c1ccccc1` (single isomer, unassigned) [Compound 33D, 7-hydroxy-1,5-dimethyl-1-phenyl-2-propyl-1,2,3,4,4a,5-hexahydrodipyrido[1,2-b:2′,1′-f][1,2,4]triazine-6,8-dione] yielded an EC50 of 2.3 nM. That is a single-digit nanomolar value.
As to `CCCC1CCC2N(C)C(=O)c3c(O)c(=O)ccn3N2C1c1ccccc1Cl` (stereo not shown) [Compound 65A, 1-(2-chlorophenyl)-7-hydroxy-5-methyl-2-propyl-1,2,3,4,4a,5-hexahydrodipyrido[1,2-b:2′,1′-f][1,2,4]triazine-6,8-dione], the EC50 turned out to be 396 nM.
The same measure, in the same setting: as for `CN1C(=O)c2c(O)c(=O)ccn2N2C(c3ccccc3)C(c3ccc(F)c(F)c3F)CCC12` (single isomer, unassigned) [Compound 85C, 7-hydroxy-5-methyl-1-phenyl-2-(2,3,4-trifluorophenyl)-1,2,3,4,4a,5-hexahydrodipyrido[1,2-b:2′,1′-f][1,2,4]triazine-6,8-dione], the figure is more than 810 nM; as for `CN1C(=O)c2c(O)c(=O)ccn2N2C(c3ccccc3)C(C3CCC(F)(F)CC3)CCC12` (single isomer, unassigned) [Compound 84A, 2-(4,4-difluorocyclohexyl)-7-hydroxy-5-methyl-1-phenyl-1,2,3,4,4a,5-hexahydrodipyrido[1,2-b:2′,1′-f][1,2,4]triazine-6,8-dione], more than 810 nM.
Still for that read-out and setting: the value for `CN1C(=O)c2c(O)c(=O)ccn2N2C(c3ccccc3)CCCCC12` (single isomer, unassigned) [Compound 57B, 4-hydroxy-6-methyl-11-phenyl-6a,7,8,9,10,11-hexahydro-3H-pyrido[1′,2′:1,6][1,2,4]triazino[2,3-a]azepine-3,5(6H)-dione] was more than 8100 nM.
On the same count and under the same terms, the value for `CN1C(=O)c2c(O)c(=O)ccn2N2C(c3ccccc3)C(O)CCC12` (stereo not shown) [Compound 136A, 2,7-dihydroxy-5-methyl-1-phenyl-1,2,3,4,4a,5-hexahydrodipyrido[1,2-b:2′,1′-f][1,2,4]triazine-6,8-dione] was 1920 nM; that for `COc1c2n(ccc1=O)N1C(c3ccccc3)C(SC(C)C)CCC1N(C)C2=O` (stereo not shown) [Compound 146B, 2-(isopropylthio)-7-methoxy-5-methyl-1-phenyl-1,2,3,4,4a,5-hexahydrodipyrido[1,2-b:2′,1′-f][1,2,4]triazine-6,8-dione] was 237 nM; that for `CCCC1CCC2N(C)C(=O)c3c(O)c(=O)ccn3N2C1(C)c1ccccc1` (single isomer, unassigned) [Compound 33B, 7-hydroxy-1,5-dimethyl-1-phenyl-2-propyl-1,2,3,4,4a,5-hexahydrodipyrido[1,2-b:2′,1′-f][1,2,4]triazine-6,8-dione] was 1880 nM.
Turning to `CCC1(c2ccccc2)CCCC2N(C)C(=O)c3c(O)c(=O)ccn3N21` (single isomer, unassigned) [Compound 22B, 1-ethyl-7-hydroxy-5-methyl-1-phenyl-1,2,3,4,4a,5-hexahydrodipyrido[1,2-b:2′,1′-f][1,2,4]triazine-6,8-dione], the response was half-maximal at 5290 nM (EC50).
In the case of `CN1C(=O)c2c(O)c(=O)ccn2N2C(c3ccccc3C(F)(F)F)CCCC12` (single isomer, unassigned) [Compound 14B, 7-hydroxy-5-methyl-1-(2-(trifluoromethyl)phenyl)-1,2,3,4,4a,5-hexahydrodipyrido[1,2-b:2′,1′-f][1,2,4]triazine-6,8-dione], the EC50 was more than 8100 nM.
On the same count and under the same terms, the value for `Cc1ccccc1C1C(CC(F)(F)F)CCC2(C)N(C)C(=O)c3c(O)c(=O)ccn3N12` (single isomer, unassigned) [Compound 87A, 7-hydroxy-4a,5-dimethyl-1-(o-tolyl)-2-(2,2,2-trifluoroethyl)-1,2,3,4,4a,5-hexahydrodipyrido[1,2-b:2′,1′-f][1,2,4]triazine-6,8-dione] was more than 810 nM.
Same read-out and setting: the value for `CCN1C(=O)c2c(O)c(=O)ccn2N2C(c3ccccc3)C(CCC(F)F)CCC12` (single isomer, unassigned) [Compound 110A, 2-(3,3-difluoropropyl)-5-ethyl-7-hydroxy-1-phenyl-1,2,3,4,4a,5-hexahydrodipyrido[1,2-b:2′,1′-f][1,2,4]triazine-6,8-dione] was 1120 nM.

As a reminder, the EC50 is the concentration that produces a half-maximal response. Read a high EC50 as a less potent agent.
